Experimental findings from PMC7168333, “5-(Carbamoylmethylene)-oxazolidin-2-ones as a Promising Class of Heterocycles Inducing Apoptosis Triggered by Increased ROS Levels and Mitochondrial Dysfunction in Breast and Cervical Cancer” (Biomedicines, 2020) are described below.

For test [1], the system named is HeLa cells. As to the kind of experiment: ROS production (CM-H2DCFDA, FACS), HeLa. The conditions noted are these: 24 h. Type of test: cell-based, human. As to the method:
Intracellular level of reactive oxygen species (ROS) was assessed by using CM-H2DCFDA (Invitrogen, Milan, Italy), a cell-permeable fluorogenic probe, which is deacetylated by intracellular esterases and can be oxidized in the presence of intracellular ROS, becoming highly fluorescent. MCF-7 and HeLa cells were seeded into 96-well tissue culture plates at a density of 5 × 10^4 cells/well and treated with 15 and 30 µM OI, respectively, for 24 h. Control cells were added with DMSO and processed at the same time. Then, cells were washed with PBS and stained in the dark with CM-H2DCFDA (diluted in PBS/CM to a final concentration of 1 μM) for 20 min at 37 °C. Next steps were also performed in the dark, in order to avoid probe oxidation. Cells were washed three times with PBS, harvested, re-suspended in PBS/CM, and fluorescence was measured by using Fortessa (BD Bioscience, San Jose, CA, USA). ROS levels were estimated by using mean fluorescent intensity of the viable cell population. Results were analyzed by the use of FlowJo software (Tree Star Inc., Ashland, OR, USA).

The test system of test [2] is HeLa cells. Kind of test: MTT cell viability assay, HeLa. Type of test: cell-based. As to conditions: Homo sapiens, 72 h. The procedure:
Cell viability was assessed by using 3-(4,5-dimethylthiazol-2-y1)-2,5-diphenyltetrazolium bromide (MTT) assay (Sigma-Aldrich, Milan, Italy), as already reported. In brief, MCF-7 and HeLa cells (2 × 10^4 cells/well) were seeded in a 48-well plate and grown in complete medium overnight, then they were switched into DMEM-F12 supplemented with 2% FBS and treated with increasing concentrations (1, 10, 50, 75, and 100 µM) of different oxazolidin-2-ones derivatives (OA-OI) or doxorubicin for 72 h. Untreated cells were added with the vehicle (DMSO) and used as a control. After treatment, fresh MTT reagent (used at a final concentration of 0.5 mg/mL) was added, prolonging incubation for 2 h according to the manufacturer’s protocol. Absorbance at 570 nm was measured in each well, including controls, and every experiment was carried out in triplicate.
For each sample, mean absorbance was expressed as a percentage of the control and plotted vs. drug concentration, in order to determine the IC50 value (i.e., drug concentration able to decrease cell viability by 50% with respect to the control) for each cell line, generating a sigmoidal dose–response curve by the use of GraphPad Prism 7 software (GraphPad Inc., San Diego, CA, USA). Mean values and standard deviations (SD) of three independent experiments carried out in triplicate were reported. […]

Test [3] relates to HeLa cells. As to the kind of experiment: TUNEL assay, HeLa. Type of test: cell-based, human. The conditions noted are these: 30 µM, 72 h, control 10%. The procedure:
Apoptosis was tested by enzymatic labeling of DNA strand breaks using terminal deoxynucleotidyl transferase-mediated deoxyuridine triphosphate nick end-labeling (TUNEL) assay, following the guidelines of the manufacturer (TUNEL assay kit, Promega, Madison, WI, USA). Briefly, MCF-7 and HeLa cells were added with DMSO or treated with 15 and 30 µM OI, respectively, for 72 h. MCF-10A were added to DMSO or treated using 30 µM OI, for 72 h. Next, nuclear staining was achieved using 0.2 mg/mL 4′,6- diamidino-2-phenylindole (DAPI, Sigma-Aldrich, Milan, Italy) and samples were examined using a fluorescent microscope (Olympus BX4 equipped with CSV1.14 software employing a CAMXC-30 for image acquisition). Images were representative of three independent experiments.

Take `CCN(CC)C(=O)/C=C1/OC(=O)N(Cc2ccccc2)C1(C)C` [OI, (E)-2-(3-benzyl-4,4-dimethyl-2-oxooxazolidin-5-ylidene)-N,N-diethylacetamide]: the “ROS increase in the presence of NAC” value in test [1] (30 µM OI + NAC) is “no longer evident”. For the same compound, in test [1] (30 µM, vs control), the ROS generation entry is “significantly stimulated”. In test [2], this compound displayed an IC50 of 31.1 µM. For the same compound, in test [3], the “apoptotic rate (TUNEL-positive cells)” value amounted to 53.2%.

A word on the IC50: it is the point on the concentration scale where inhibition reaches its midpoint. Higher therefore signals weaker potency.
